Source: PMC5218480 (PLoS ONE, 2017)

Test system: MV-4-11 cells
Experiment: Gene expression microarray analysis (Affymetrix PrimeView) and GSEA
Assay type: cell-based, human
Set-up: RFU PODN (11730768_x_at) / Fold change /veh PODN (11730768_x_at) / RFU LINC00158 (11744669_a_at) / Fold change /veh LINC00158 (11744669_a_at) / RFU DUSP10 (11751237_a_at) / Fold change /veh DUSP10 (11751237_a_at) / RFU ID3 (11757404_x_at) / Fold change /veh ID3 (11757404_x_at) / RFU PLEKHG5 (11737974_s_at) / Fold change /veh PLEKHG5 (11737974_s_at) / RFU LRRC4B (11730491_at) / Fold change /veh LRRC4B (11730491_at) / RFU GIMAP4 (11747438_a_at) / Fold change /veh GIMAP4 (11747438_a_at) / RFU KRT8 (11758183_x_at) / Fold change /veh KRT8 (11758183_x_at) / RFU CNN1 (11734310_a_at) / Fold change /veh CNN1 (11734310_a_at) / RFU VPS37D (11726825_at) / Fold change /veh VPS37D (11726825_at) / RFU C10orf10 (11716522_x_at) / Fold change /veh C10orf10 (11716522_x_at) / RFU KIR2DL2 /// KIR2DL4 /// KIR2DL5A /// KIR2DL5B /// KIR2DS1 /// KIR2DS2 /// KIR2DS3 /// KIR2DS4 /// KIR3DL3 /// KIR3DL3 /// KIR3DS1 (11738374_at) / Fold change /veh KIR2DL2 /// KIR2DL4 /// KIR2DL5A /// KIR2DL5B /// KIR2DS1 /// KIR2DS2 /// KIR2DS3 /// KIR2DS4 /// KIR3DL3 /// KIR3DL3 /// KIR3DS1 (11738374_at) / RFU C1QL1 (11718748_at) / Fold change /veh C1QL1 (11718748_at) / RFU TMPRSS4 (11747572_a_at) / Fold change /veh TMPRSS4 (11747572_a_at) / RFU HAMP (11756126_x_at) / Fold change /veh HAMP (11756126_x_at) / RFU RNFT2 (11725882_a_at) / Fold change /veh RNFT2 (11725882_a_at) / RFU NR4A2 (11747474_a_at) / Fold change /veh NR4A2 (11747474_a_at) / RFU ABCC12 (11746883_a_at) / Fold change /veh ABCC12 (11746883_a_at) / RFU TMEM136 (11760407_x_at) / Fold change /veh TMEM136 (11760407_x_at) / RFU CLDN22 /// WWC2 (11732394_at) / Fold change /veh CLDN22 /// WWC2 (11732394_at) / RFU HLA-DPB1 (11760878_x_at) / Fold change /veh HLA-DPB1 (11760878_x_at) / RFU SPINT1 (11716480_a_at) / Fold change /veh SPINT1 (11716480_a_at) / RFU GAP43 (11754022_s_at) / Fold change /veh GAP43 (11754022_s_at) / RFU A4GNT (11735810_at) / Fold change /veh A4GNT (11735810_at) / RFU PRB3 (11715151_x_at) / Fold change /veh PRB3 (11715151_x_at) / RFU TUBB4B (11761932_at) / Fold change /veh TUBB4B (11761932_at) / RFU CAPN14 (11732068_a_at) / Fold change /veh CAPN14 (11732068_a_at) / RFU TMCC2 (11721928_a_at) / Fold change /veh TMCC2 (11721928_a_at) / RFU IRGQ (11745062_a_at) / Fold change /veh IRGQ (11745062_a_at) / RFU FAM174B (11720279_a_at) / Fold change /veh FAM174B (11720279_a_at) / RFU TMPRSS4 (11748680_a_at) / Fold change /veh TMPRSS4 (11748680_a_at) / RFU FAM212B (11763350_a_at) / Fold change /veh FAM212B (11763350_a_at) / RFU PLEKHG5 (11743358_a_at) / Fold change /veh PLEKHG5 (11743358_a_at) / RFU ZSCAN30 (11745921_a_at) / Fold change /veh ZSCAN30 (11745921_a_at) / RFU CMKLR1 (11741424_a_at) / Fold change /veh CMKLR1 (11741424_a_at) / RFU LOC101060620 /// MAPK8IP1 (11723275_at) / Fold change /veh LOC101060620 /// MAPK8IP1 (11723275_at) / RFU SPTSSB (11747773_x_at) / Fold change /veh SPTSSB (11747773_x_at) / RFU PRSS12 (11739890_at) / Fold change /veh PRSS12 (11739890_at) / RFU BIN1 (11741810_x_at) / Fold change /veh BIN1 (11741810_x_at) / RFU WNT11 (11732464_a_at) / Fold change /veh WNT11 (11732464_a_at) / RFU C10orf10 (11716521_a_at) / Fold change /veh C10orf10 (11716521_a_at) / RFU C5orf56 (11738089_at) / Fold change /veh C5orf56 (11738089_at) / RFU CYB561 (11721691_x_at) / Fold change /veh CYB561 (11721691_x_at) / RFU ANKRD19P (11752326_a_at) / Fold change /veh ANKRD19P (11752326_a_at) / RFU OR2T12 /// OR2T33 /// OR2T8 (11738714_s_at) / Fold change /veh OR2T12 /// OR2T33 /// OR2T8 (11738714_s_at) / RFU VCAN (11748164_a_at) / Fold change /veh VCAN (11748164_a_at) / RFU JSRP1 (11732532_at) / Fold change /veh JSRP1 (11732532_at) / RFU KRTAP10-11 (11738290_x_at) / Fold change /veh KRTAP10-11 (11738290_x_at) / RFU MYO3A (11730013_a_at) / Fold change /veh MYO3A (11730013_a_at) / RFU EBF3 (11725865_a_at) / Fold change /veh EBF3 (11725865_a_at) / RFU CAMK2N1 (11719241_x_at) / Fold change /veh CAMK2N1 (11719241_x_at) / RFU C5orf56 (11738088_a_at) / Fold change /veh C5orf56 (11738088_a_at) / RFU OLFML3 (11715873_a_at) / Fold change /veh OLFML3 (11715873_a_at) / RFU LOC100653217 /// NTM (11731650_a_at) / Fold change /veh LOC100653217 /// NTM (11731650_a_at) / RFU MAPK11 (11762145_a_at) / Fold change /veh MAPK11 (11762145_a_at) / RFU FIZ1 (11724087_x_at) / Fold change /veh FIZ1 (11724087_x_at) / RFU OASL (11726364_x_at) / Fold change /veh OASL (11726364_x_at) / RFU SOX15 (11748057_x_at) / Fold change /veh SOX15 (11748057_x_at) / RFU CD79A (11719716_a_at) / Fold change /veh CD79A (11719716_a_at) / RFU HIST1H1D (11736915_at) / Fold change /veh HIST1H1D (11736915_at) / RFU CASKIN2 (11723855_a_at) / Fold change /veh CASKIN2 (11723855_a_at) / RFU LOC730098 (11760151_x_at) / Fold change /veh LOC730098 (11760151_x_at) / RFU OR4N2 (11742367_at) / Fold change /veh OR4N2 (11742367_at) / RFU PRRT2 (11749266_a_at) / Fold change /veh PRRT2 (11749266_a_at) / RFU SNX32 (11753110_a_at) / Fold change /veh SNX32 (11753110_a_at) / RFU CDHR5 (11726645_a_at) / Fold change /veh CDHR5 (11726645_a_at) / RFU RCAN1 (11760418_a_at) / Fold change /veh RCAN1 (11760418_a_at) / RFU FAM167A (11723789_a_at) / Fold change /veh FAM167A (11723789_a_at) / RFU FAM26E (11764081_at) / Fold change /veh FAM26E (11764081_at) / RFU ISYNA1 (11749810_s_at) / Fold change /veh ISYNA1 (11749810_s_at) / RFU ACY1 (11761880_at) / Fold change /veh ACY1 (11761880_at) / RFU 11764098_at / Fold change /veh 11764098_at / RFU SAMD14 (11745864_x_at) / Fold change /veh SAMD14 (11745864_x_at) / RFU NPB (11741838_a_at) / Fold change /veh NPB (11741838_a_at) / RFU TMPRSS6 (11731388_a_at) / Fold change /veh TMPRSS6 (11731388_a_at) / RFU KRTAP10-2 (11738614_at) / Fold change /veh KRTAP10-2 (11738614_at) / RFU ARHGAP8 /// PRR5-ARHGAP8 (11727945_x_at) / Fold change /veh ARHGAP8 /// PRR5-ARHGAP8 (11727945_x_at) / RFU KRTAP5-7 /// NADSYN1 (11734609_at) / Fold change /veh KRTAP5-7 /// NADSYN1 (11734609_at) / RFU RASL12 (11751679_a_at) / Fold change /veh RASL12 (11751679_a_at) / RFU CDKN2B (11736163_a_at) / Fold change /veh CDKN2B (11736163_a_at) / RFU PRF1 (11729649_at) / Fold change /veh PRF1 (11729649_at) / RFU, ZNF638 /// ZNF638-IT1 / Fold change vs veh, ZNF638 /// ZNF638-IT1 / RFU, PANK3 / Fold change vs veh, PANK3 / RFU, SH3YL1 / Fold change vs veh, SH3YL1 / RFU, ZEB2 / Fold change vs veh, ZEB2 / RFU, NRIP1 / Fold change vs veh, NRIP1 / RFU, PTTG1IP / Fold change vs veh, PTTG1IP / RFU, CAPN2 / Fold change vs veh, CAPN2 / RFU, MED14 / Fold change vs veh, MED14 / RFU, SNORA58 / Fold change vs veh, SNORA58 / RFU, C1orf63 / Fold change vs veh, C1orf63 / RFU, LRRFIP1 / Fold change vs veh, LRRFIP1 / RFU, NDUFAF7 / Fold change vs veh, NDUFAF7 / RFU, SLC12A2 / Fold change vs veh, SLC12A2 / RFU, IBTK / Fold change vs veh, IBTK / RFU, ESF1 / Fold change vs veh, ESF1 / Fold change vs veh, TMEM50B / RFU, TAOK1 / Fold change vs veh, TAOK1 / RFU, ACBD3 / Fold change vs veh, ACBD3 / RFU, TMA16 / Fold change vs veh, TMA16 / RFU, RWDD3 / Fold change vs veh, RWDD3 / RFU, BCAT1 / Fold change vs veh, BCAT1 / RFU, EDEM3 / Fold change vs veh, EDEM3 / RFU, TMEM33 / Fold change vs veh, TMEM33 / RFU, WDR75 / Fold change vs veh, WDR75 / RFU, AHCTF1 / Fold change vs veh, AHCTF1 / RFU, TFRC / Fold change vs veh, TFRC / RFU, ZDHHC17 / Fold change vs veh, ZDHHC17 / RFU, NOM1 / Fold change vs veh, NOM1 / RFU, ARL8B / Fold change vs veh, ARL8B / RFU, ZBTB11 / Fold change vs veh, ZBTB11 / RFU, TAMM41 / Fold change vs veh, TAMM41 / RFU, KIAA1704 /// LOC100996395 / Fold change vs veh, KIAA1704 /// LOC100996395 / RFU, ING1 / Fold change vs veh, ING1 / RFU, TRMT61B / Fold change vs veh, TRMT61B / RFU, FUBP3 / Fold change vs veh, FUBP3 / RFU, TP53 / Fold change vs veh, TP53 / RFU, TNKS2 / Fold change vs veh, TNKS2 / RFU, ZFP14 / Fold change vs veh, ZFP14 / RFU, ACTR2 / Fold change vs veh, ACTR2 / RFU, PPP3R1 / Fold change vs veh, PPP3R1 / RFU, PIK3R1 / Fold change vs veh, PIK3R1 / RFU, HNRNPA1 / Fold change vs veh, HNRNPA1 / RFU, RNF170 / Fold change vs veh, RNF170 / RFU, ZNF28 / Fold change vs veh, ZNF28 / RFU, RNGTT / Fold change vs veh, RNGTT / RFU, OGT / Fold change vs veh, OGT / RFU, BRD1 / Fold change vs veh, BRD1 / RFU, MARS / Fold change vs veh, MARS / RFU, ZNF655 / Fold change vs veh, ZNF655 / RFU, FAHD1 / Fold change vs veh, FAHD1 / RFU, BDP1 / Fold change vs veh, BDP1 / RFU, LRRCC1 / Fold change vs veh, LRRCC1 / RFU, ARID1A / Fold change vs veh, ARID1A / RFU, ZNF146 / Fold change vs veh, ZNF146 / RFU, ZNF330 / Fold change vs veh, ZNF330 / RFU, GPN3 / Fold change vs veh, GPN3 / RFU, C9orf123 / Fold change vs veh, C9orf123 / RFU, N4BP2L2 / Fold change vs veh, N4BP2L2 / RFU, ARFIP1 / Fold change vs veh, ARFIP1 / RFU, FAM179B / Fold change vs veh, FAM179B / RFU, BCL10 / Fold change vs veh, BCL10 / RFU, UHRF1BP1L / Fold change vs veh, UHRF1BP1L / RFU, BET1 / Fold change vs veh, BET1 / RFU, CNOT2 / Fold change vs veh, CNOT2 / RFU, ZNF268 / Fold change vs veh, ZNF268 / Fold change vs veh, ZNF507 / RFU, DGCR2 / Fold change vs veh, DGCR2 / RFU, WDSUB1 / Fold change vs veh, WDSUB1 / Fold change vs veh, HSP90B1 /// MIR3652 / RFU, ADSS / Fold change vs veh, ADSS / RFU, GK / Fold change vs veh, GK / RFU, ZNF148 / Fold change vs veh, ZNF148 / RFU, TAF9 / Fold change vs veh, TAF9 / RFU, SLC1A5 / Fold change vs veh, SLC1A5 / RFU, SLMO2 / Fold change vs veh, SLMO2 / RFU, ABCC4 / Fold change vs veh, ABCC4 / RFU, LOC101060439 /// RAP1B / Fold change vs veh, LOC101060439 /// RAP1B / RFU, RFX7 / Fold change vs veh, RFX7 / RFU, GTPBP10 / Fold change vs veh, GTPBP10 / RFU, CNEP1R1 / Fold change vs veh, CNEP1R1 / RFU, BIVM-ERCC5 /// ERCC5 / Fold change vs veh, BIVM-ERCC5 /// ERCC5 / RFU, ILF3 / Fold change vs veh, ILF3 / RFU 11762660_at / Fold change /veh 11762660_at / RFU VCAN (11757783_s_at) / Fold change /veh VCAN (11757783_s_at) / RFU DDX43 (11728927_at) / Fold change /veh DDX43 (11728927_at) / RFU KRT8 (11758188_x_at) / Fold change /veh KRT8 (11758188_x_at) / RFU NKD1 (11759106_at) / Fold change /veh NKD1 (11759106_at) / RFU SRD5A1 (11742802_a_at) / Fold change /veh SRD5A1 (11742802_a_at) / RFU TPSAB1 /// TPSB2 (11721975_s_at) / Fold change /veh TPSAB1 /// TPSB2 (11721975_s_at) / RFU GSTM3 (11746129_a_at) / Fold change /veh GSTM3 (11746129_a_at) / RFU IL23R (11737362_x_at) / Fold change /veh IL23R (11737362_x_at) / RFU TMEM51 (11727254_a_at) / Fold change /veh TMEM51 (11727254_a_at) / RFU PIWIL2 (11732686_x_at) / Fold change /veh PIWIL2 (11732686_x_at) / RFU ORM1 (11744905_x_at) / Fold change /veh ORM1 (11744905_x_at) / RFU CCDC152 (11743942_at) / Fold change /veh CCDC152 (11743942_at) / RFU ECM1 (11717891_a_at) / Fold change /veh ECM1 (11717891_a_at) / RFU IL23R (11748794_a_at) / Fold change /veh IL23R (11748794_a_at) / RFU TNFAIP8L3 (11732012_x_at) / Fold change /veh TNFAIP8L3 (11732012_x_at) / RFU MBOAT4 (11741988_at) / Fold change /veh MBOAT4 (11741988_at) / RFU 11764193_at / Fold change /veh 11764193_at / RFU TMEM53 (11763286_at) / Fold change /veh TMEM53 (11763286_at) / RFU MAGEB2 (11727129_at) / Fold change /veh MAGEB2 (11727129_at) / RFU TMEM200A (11744735_a_at) / Fold change /veh TMEM200A (11744735_a_at) / RFU CCDC152 (11751479_a_at) / Fold change /veh CCDC152 (11751479_a_at) / RFU FAM211A (11726209_a_at) / Fold change /veh FAM211A (11726209_a_at) / RFU RGS16 (11746705_a_at) / Fold change /veh RGS16 (11746705_a_at) / RFU VCAN (11755009_s_at) / Fold change /veh VCAN (11755009_s_at) / RFU RHOB (11743442_s_at) / Fold change /veh RHOB (11743442_s_at) / RFU RGS16 (11720943_a_at) / Fold change /veh RGS16 (11720943_a_at) / RFU RGS16 (11720944_at) / Fold change /veh RGS16 (11720944_at) / RFU, VPS4B / Fold change vs veh, VPS4B / RFU, CREB1 / Fold change vs veh, CREB1 / RFU, DNAJC13 / Fold change vs veh, DNAJC13 / RFU, GNAQ / Fold change vs veh, GNAQ / RFU, CDK5R1 / Fold change vs veh, CDK5R1 / RFU, ZRANB3 / Fold change vs veh, ZRANB3 / RFU, CUL4A / Fold change vs veh, CUL4A / RFU, CCNY / Fold change vs veh, CCNY / RFU, UFL1 / Fold change vs veh, UFL1 / RFU, COG3 / Fold change vs veh, COG3 / RFU, DIAPH2 / Fold change vs veh, DIAPH2 / RFU, SKA2 / Fold change vs veh, SKA2 / RFU, AFF3 / Fold change vs veh, AFF3 / RFU, LMF1 / Fold change vs veh, LMF1 / RFU, IPO11 / Fold change vs veh, IPO11 / RFU, DFFB / Fold change vs veh, DFFB / RFU, FOXP1 / Fold change vs veh, FOXP1 / RFU, CARD8 / Fold change vs veh, CARD8 / RFU, STRN3 / Fold change vs veh, STRN3 / RFU, ADK / Fold change vs veh, ADK / RFU, RASSF2 / Fold change vs veh, RASSF2 / RFU, WIPF1 / Fold change vs veh, WIPF1 / RFU, LARP1B / Fold change vs veh, LARP1B / RFU, RASA1 / Fold change vs veh, RASA1 / RFU, RB1 / Fold change vs veh, RB1 / RFU, PPFIA1 / Fold change vs veh, PPFIA1 / RFU, MAT2A / Fold change vs veh, MAT2A / RFU, CCT5 / Fold change vs veh, CCT5 / RFU, WDR92 / Fold change vs veh, WDR92 / RFU, CUX1 / Fold change vs veh, CUX1 / RFU, TTC7A / Fold change vs veh, TTC7A / RFU, TMEM135 / Fold change vs veh, TMEM135 / RFU, DEPTOR / Fold change vs veh, DEPTOR / RFU, CPM / Fold change vs veh, CPM / RFU, DNAJB6 / Fold change vs veh, DNAJB6 / RFU, CACNA2D3 / Fold change vs veh, CACNA2D3 / RFU, DTX4 / Fold change vs veh, DTX4 / RFU, TFCP2 / Fold change vs veh, TFCP2 / RFU, GMCL1 /// GMCL1P1 / Fold change vs veh, GMCL1 /// GMCL1P1 / RFU, AEBP2 / Fold change vs veh, AEBP2 / RFU, SNHG1 /// SNORD22 /// SNORD25 /// SNORD26 /// SNORD27 /// SNORD28 /// SNORD29 /// SNORD31 / Fold change vs veh, SNHG1 /// SNORD22 /// SNORD25 /// SNORD26 /// SNORD27 /// SNORD28 /// SNORD29 /// SNORD31 / Fold change (Aza/veh), C12orf56 (ProbeSet 11735607_a_at) / Fold change (ACY-1035/veh), C12orf56 (ProbeSet 11735607_a_at) / Fold change (Aza/veh), FGFR1OP (ProbeSet 11751329_s_at) / Fold change (ACY-1035/veh), FGFR1OP (ProbeSet 11751329_s_at) / Fold change (Aza/veh), VPS36 (ProbeSet 11739960_a_at) / Fold change (ACY-1035/veh), VPS36 (ProbeSet 11739960_a_at) / RFU SYPL1 (11715823_x_at) / Fold change /veh SYPL1 (11715823_x_at) / RFU IGFBP7 (11715501_s_at) / Fold change /veh IGFBP7 (11715501_s_at) / RFU REEP3 (11722064_at) / Fold change /veh REEP3 (11722064_at) / RFU IGLL1 (11728026_x_at) / Fold change /veh IGLL1 (11728026_x_at): dose or concentration left out as unconfirmed
Settings: ProbeSet 11741199_a_at; LIST B

## Nc1ccc(-c2cccs2)cc1NC(=O)c1ccc2c(c1)cc(C1CC1)n2CCN1CCOCC1 [ACY-1035]
  Fold change vs veh, LRRCC1: 0.84
